{
  "source": "paper PMC4604765",
  "about": "“Eye drop delivery of pigment epithelium-derived factor-34 promotes retinal ganglion cell neuroprotection and axon regeneration” (Molecular and Cellular Neurosciences, 2015)",
  "system": "βIII-tubulin+ retinal neurons",
  "test": "Neurite outgrowth in mixed adult rat retinal cultures (βIII-tubulin immunocytochemistry)",
  "type": "cell-based",
  "description": "For all in vitro experiments, adult 6–8-week-old female Sprague–Dawley rats weighing 170–220 g were used. Culture experiments included retinal cells treated with: (1), Neurobasal-A (NBA) alone (Control); and equimolar concentrations of (2), 2.16; (3) 5.4; (4), 10.8 and (5), 21.6 pM PEDF-34/-44; and (6), ciliary neurotrophic factor (CNTF: Peprotech, London, UK), as a positive control at an optimal neuroprotective/axogenic concentration of 440.5 pM, established by us previously ([Ahmed et al., 2009; Douglas et al., 2009]). […] All experiments were performed in triplicate and repeated on three independent occasions.\nMixed adult rat retinal cultures containing enriched populations of retinal neurons, including RGCs, were prepared from 6–8-week-old adult female Sprague–Dawley rats, as described previously ([Ahmed et al., 2006b, 2009, 2010; Douglas et al., 2009; Vigneswara et al., 2013]). Briefly, retinal cells were dissociated using a Papain dissociation kit according to the manufacturer's instructions (Worthington Biochemicals, Lakewood, NJ, USA). Retinal cells were plated at a density of 125 × 10^3/well in poly-D-lysine and laminin pre-coated 8-well chamber slides and cultured in NBA supplemented with B27 supplement (all from Invitrogen, Paisley, UK), with appropriate treatments for 4 days at 37 °C and 5% CO2 before fixation in 4% paraformaldehyde diluted in PBS for immunocytochemistry, as described previously ([Vigneswara et al., 2013, 2014]).\nFixed cells were washed in several changes of PBS before permeabilisation and blocking of non-specific antibody sites with PBS containing 3% bovine serum albumin (BSA) and 0.1% Triton X-100 (both from Sigma, Poole, UK). Cells were then incubated with monoclonal anti-βIII-tubulin antibody (1:200 dilution; Sigma) for 1 h at room temperature (RT) to detect retinal neurons and their neurites. Cells were then washed in several changes of PBS and incubated with Alexa 488 anti-mouse IgG (1:400 dilution; Invitrogen) for 1 h at RT. After washing in several changes of PBS and mounting in Vectamount containing DAPI (Vector Laboratories, Peterborough, UK), cells were then viewed using a Zeiss epi-fluorescent microscope equipped with an AxioCam HRc and Axiovision Image capture software (all from Zeiss, Hertfordshire, UK). Immunocytochemistry included controls with primary antibody omitted, to set background levels of nonspecific staining (not shown) before image capture.\nThe mean number of βIII-tubulin^+ neurons surviving, with neurites and the mean neurite length were quantified as described by us previously ([Vigneswara et al., 2013, 2014]). Briefly, chamber slides were anonymised by a second investigator and βIII-tubulin^+ neuronal soma and neurites quantified in 9 quadrants/well using Axiovision software (Version 4.8; Zeiss) and ImagePro (Version 6.3; Media Cybernetics, Bethesda, MD, USA). Of the 125,000 cells/well plated, the total numbers of neurons in each experiment were determined by βIII-tubulin^+ immunocytochemistry after allowing 30 min for cells to adhere to glass culture slides. This determines the number of neurons plated/well and is used in each experiment to work out the proportion of surviving βIII-tubulin^+ neurons. Neurite outgrowth from at least 180 neurons/condition from the 9 wells was measured, except in control (NBA) cultures, in which a total of 108 neurons were measured.",
  "key": {"[1]": {"details": "5.4 pM (peak), 4 days in culture"}},
  "note": "No end group written: not given here.",
  "data": [
    {"sequence": "DPFFKVPVNKLAAAVSNFGYDLYRVRSSTSPTTN [PEDF-34]", "values": [
      {"measurement": "mean neurite length", "setting": "[1]", "result": "211 ± 23", "unit": "μm"},
      {"measurement": "mean proportion of βIII-tubulin+ neurons with neurites", "setting": "[1]", "result": "21 ± 2", "unit": "%"},
      {"measurement": "fold longer neurites than in CNTF cultures", "setting": "PEDF-34 versus CNTF (440.5 pM)", "result": 2.2, "unit": "fold"},
      {"measurement": "fold more βIII-tubulin+ neurons with neurites than in CNTF cultures", "setting": "PEDF-34 versus CNTF (440.5 pM)", "result": 10.5, "unit": "fold"},
      {"measurement": "fold longer neurites than in PEDF-44 cultures", "setting": "PEDF-34 versus PEDF-44", "result": 1.7, "unit": "fold"},
      {"measurement": "fold more βIII-tubulin+ neurons with neurites than in PEDF-44 cultures", "setting": "PEDF-34 versus PEDF-44", "result": 2.3, "unit": "fold"},
      {"measurement": "more neuritogenic than PEDF-44 in vitro", "setting": "PEDF-34 versus equimolar PEDF-44, retinal cultures", "result": 52, "unit": "%"},
      {"measurement": "fold longer neurites than in untreated cultures", "setting": "PEDF-34 versus untreated", "result": 6.3, "unit": "fold"},
      {"measurement": "fold more βIII-tubulin+ neurons with neurites than in untreated cultures", "setting": "PEDF-34 versus untreated", "result": 21, "unit": "fold"},
      {"measurement": "retinal neuron/RGC neuritogenesis/axogenesis compared to untreated controls", "setting": "statement in discussion", "result": "Five-fold more"}
    ]}
  ]
}
